Measured values as given in patent US9751832B2, “Selective histone deactylase 6 inhibitors” (H. LEE MOFFITT CANCER CENTER AND RESEARCH INSTITUTE, INC., priority 2013, dated 2017).
Like-named read-outs stand apart in the source and are kept apart here.

What was measured:
[1] = target: HDAC1 (Homo sapiens (Human), UniProt Q13547); assay: HDAC inhibition assay, HDAC1; type: biochemical
[2] = target: HDAC6 (Homo sapiens (Human), UniProt Q9UBN7); assay: HDAC inhibition assay, HDAC6; type: biochemical
[3] = system: acetyl-tubulin and acetyl-histone3 in human melanoma cell lines; assay: Western blot of HDAC substrate acetylation in human melanoma cell lines; type: cell-based; conditions: for acetyl-tubulin and acetylation status of Histone 3: WM795 cells, 24 hrs, FIG. 47
Procedure: To confirm the selectivity of isotype specific HDACi, Western blot analysis was performed on the acetylation status of known HDAC substrates including histone H3 and H4, which are known Class I HDAC targets, and α-tubulin, a target for HDAC6. The doses required to impart the anti-proliferative effect coincided with that needed to increase acetylation of the respective HDAC substrates (FIG. 41F-41H). […] Conversely, HDAC6 selective inhibitors (HDAC6i) increase α-tubulin acetylation but not histone acetylation (FIG. 41F).

[4] = system: HuT-78, murine MCL, B16 and SM1 cells; assay: Cell viability of cancer cells (CellTiter 96 Aqueous ONE); type: cell-based, human and murine; conditions: 24 hrs, compared to DMSO
Procedure: Human cutaneous T-cell lymphoma (CTCL) HuT-78 (A), murine mantle cell lymphoma (MCL) (B), and murine melanoma B16 (C) and SM1 (D) cells were incubated with JB7-19, JB7-22, JB720 at different concentrations for 24 hrs. Cell viability was measured using CellTiter 96 Aqueous ONE solution (Promega, Madison, Wis.) and compared to DMSO treated control samples. Error bars represent standard deviation from triplicates.

[5] = system: IL-10 production in PEM and RAW264.7 cells; assay: IL-10 production in antigen presenting cells (ELISA); type: cell-based, murine; conditions: 24 hrs
Procedure: Murine peritoneal elicited primary macrophages (PEM)(A) and murine RAW264.7 (B) cells were incubated with JB7-19, JB7-22, JB720 at the concentration indicated on each chart. After 24 hrs, the production of IL-10 was measured by ELISA.

[6] = system: NRAS and BRAF mutant human melanoma cell lines; assay: Cell proliferation of human melanoma cell lines (MTS, 24 h); type: cell-based
Procedure: Cell proliferation was evaluated using various pan- and isotype selective HDACi in a broad panel of human melanoma cell lines. Briefly, cells were plated at 10×10^3/well in a 96 well flat bottom plate. The following day, media was changed to that containing different concentrations of HDACi or matched DMSO vehicle concentrations diluted in complete medium done in triplicate, all with a final concentration of less than 0.1% DMSO. Cells were incubated for 24 hours at 37° C. and 5% CO2. […] All values were then normalized and expressed as a percentage of medium control growth.

[7] = system: human melanoma cell lines; assay: Cell cycle analysis by propidium iodide staining; type: cell-based; conditions: FACS
Procedure: Cells were treated with indicated doses of HDAC inhibitors or DMSO control and then trypsinized, washed, and rendered into a single cell suspension in 1 mL of DPBS. 4 mL ice cold 200 proof ethyl alcohol was added dropwise while vortexing to fix cells. Samples were washed and resuspended in 75% ethanol solution overnight. Then, cells were washed in PBS+0.1% Triton X-100 and counted. Equal numbers of cells were then stained in a solution containing 10 μg/mL RNAseA+1 μg/mL propidium iodide for 2 hours at room temperature. Data was then acquired using a FACSCaliber with at least 10,000 events collected. Cell cycle analysis was completed using ModFit LT (Verity Software House, Topsham, Me.).

[8] = system: MHC expression on melanoma cells; assay: Surface marker analysis of melanoma cells by flow cytometry; type: cell-based, human and murine; conditions: 3 μM, 48 hours, B16 and WM793
Procedure: For surface marker analysis melanoma cells were treated with TubastatinA or DMSO for 48 hrs, and/or using Non target and HDAC6KD cell lines, Cells were singly stained with phycoerythryn (PE) conjugated antibodies against MHC I, MHC II, CD40, CD80, CD86. Conjugated antibodies were purchases from eBioscience (San Diego, Calif., USA). After staining for 30 minutes at 4° C., cells were washed three times and then resuspended in buffer containing DAPI (50 ng/mL) for viability. At least 10,000 events were collected using an LSR II (BD) and subsequently analyzed using FlowJo software.2.2.7.

[9] = system: B16 melanoma; assay: In vivo B16 melanoma tumor growth in C57BL/6 mice; conditions: for Tumor growth: 25 mg/kg, intraperitoneal, three times weekly
[10] = system: JAK2/STAT3 phosphorylation in B16 murine melanoma cells; assay: JAK2/STAT3 phosphorylation in B16 melanoma in vivo
[11] = system: macrophages; assay: Tubastatin A treatment of macrophages (APCs) in vitro; type: cell-based
[12] = system: antigen-specific T-cells; assay: In vivo antigen-specific T-cell response to vaccination; parameters: species or system mice; conditions: in vivo treatment
[13] = system: STAT3 phosphorylation in APCs; assay: STAT3 phosphorylation and recruitment to the IL-10 gene promotor in APCs; type: cell-based
[14] = system: MCL; assay: In vivo treatment of MCL-bearing mice
[15] = system: melanoma antigens gp100, MART1, TYRP1 and TYRP2; assay: Expression of tumor antigens in human melanoma cells (qRT-PCR); type: cell-based; conditions: 48 hours
Procedure: (D) Expression of tumor antigens was measured in human WM164 non-target and HDAC6KD cells. (E) Expression of tumor antigens mart-1 and gp-100 was measured by western blot.

[16] = system: B16 WT melanoma; assay: In vivo B16 melanoma tumor growth in SCID mice
From the text: To further characterize the relative contribution of anti-tumor immunity, specific subsets of cells were depleted via antibody depletion, which was confirmed by staining leukocytes from spleen. […] Taken together, these observations support the anti-melanoma activity of a functional immune system after HDAC6 inhibition.

[17] = system: B16 murine melanoma cells; assay: B16 melanoma cell growth inhibition assay (MTS); type: cell-based; conditions: 48 h
Procedure: B16 murine melanoma cells were plated at 5×10^3/well in 96 well flat bottom plates. The following day, media was changed to that containing various concentrations of HDACi or matched DMSO vehicle concentrations diluted in complete medium done in triplicate. […] Briefly, 20 μL of reagent were added per well and incubated at 37° C. for 3 hours.

[18] = system: acetyl-α-tubulin and acetyl-H3 in B16 melanoma cells; assay: Tubulin and histone acetylation Western blot assay; type: cell-based, murine
Procedure: […]. B16 melanoma cells were plated at 10^5 cells/well in 12 well plates and allowed to adhere overnight. A 50 mM stock of compound was then added by serial dilutions in complete medium to the indicated concentrations. Cells were incubated for 24 h under humidified conditions (37° C., 5% CO2). Wells were then washed with cold PBS, and cells were lysed in a buffer containing 10 mM Tris-HCl pH 8.0, 10% SDS, […], 100 mM DTT, and 1× protease inhibitor (Roche). Cells were lysed for 30 min on ice and then sonicated for 8 min (8 cycles of 30 s on/30 s rest). Cells were then boiled for 10 min with 6× gel loading buffer and resolved on 4-15% gradient gels and subsequently transferred onto nitrocellulose membranes. Membranes were blocked with 5% milk in PBS-T and detection of specific antigens using antibodies against acetyl-H3 and H3 (Cell Signaling), and acetyl-α-tubulin and α-tubulin (Sigma). Bands were detected by scanning blots with LI-COR Odyssey imaging system using both 700 and 800 channels.

[19] = Table 1B, read-out: IC50 (μM) HDAC1
[20] = Table 1B, read-out: IC50 (μM) HDAC6
[21] = Table 2, cyclic urea compounds, read-out: HDAC1 IC50
[22] = Table 2, cyclic urea compounds, read-out: HDAC6 IC50

Chain of HDAC1 (Q13547 whole entry): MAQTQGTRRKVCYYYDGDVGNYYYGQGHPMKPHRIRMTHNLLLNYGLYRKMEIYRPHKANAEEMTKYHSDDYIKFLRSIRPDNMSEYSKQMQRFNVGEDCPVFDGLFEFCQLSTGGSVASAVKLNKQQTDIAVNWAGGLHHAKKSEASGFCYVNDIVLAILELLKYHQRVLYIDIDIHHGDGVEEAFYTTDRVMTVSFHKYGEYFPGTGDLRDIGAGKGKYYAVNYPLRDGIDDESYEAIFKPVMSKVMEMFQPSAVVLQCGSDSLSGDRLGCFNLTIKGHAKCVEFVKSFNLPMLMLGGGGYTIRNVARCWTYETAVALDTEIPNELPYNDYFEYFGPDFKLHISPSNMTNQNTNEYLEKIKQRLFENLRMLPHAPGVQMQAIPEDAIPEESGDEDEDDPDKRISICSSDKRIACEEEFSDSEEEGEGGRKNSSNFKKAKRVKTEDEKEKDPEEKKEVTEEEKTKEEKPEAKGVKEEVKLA
Chain of HDAC6 (Q9UBN7 whole entry): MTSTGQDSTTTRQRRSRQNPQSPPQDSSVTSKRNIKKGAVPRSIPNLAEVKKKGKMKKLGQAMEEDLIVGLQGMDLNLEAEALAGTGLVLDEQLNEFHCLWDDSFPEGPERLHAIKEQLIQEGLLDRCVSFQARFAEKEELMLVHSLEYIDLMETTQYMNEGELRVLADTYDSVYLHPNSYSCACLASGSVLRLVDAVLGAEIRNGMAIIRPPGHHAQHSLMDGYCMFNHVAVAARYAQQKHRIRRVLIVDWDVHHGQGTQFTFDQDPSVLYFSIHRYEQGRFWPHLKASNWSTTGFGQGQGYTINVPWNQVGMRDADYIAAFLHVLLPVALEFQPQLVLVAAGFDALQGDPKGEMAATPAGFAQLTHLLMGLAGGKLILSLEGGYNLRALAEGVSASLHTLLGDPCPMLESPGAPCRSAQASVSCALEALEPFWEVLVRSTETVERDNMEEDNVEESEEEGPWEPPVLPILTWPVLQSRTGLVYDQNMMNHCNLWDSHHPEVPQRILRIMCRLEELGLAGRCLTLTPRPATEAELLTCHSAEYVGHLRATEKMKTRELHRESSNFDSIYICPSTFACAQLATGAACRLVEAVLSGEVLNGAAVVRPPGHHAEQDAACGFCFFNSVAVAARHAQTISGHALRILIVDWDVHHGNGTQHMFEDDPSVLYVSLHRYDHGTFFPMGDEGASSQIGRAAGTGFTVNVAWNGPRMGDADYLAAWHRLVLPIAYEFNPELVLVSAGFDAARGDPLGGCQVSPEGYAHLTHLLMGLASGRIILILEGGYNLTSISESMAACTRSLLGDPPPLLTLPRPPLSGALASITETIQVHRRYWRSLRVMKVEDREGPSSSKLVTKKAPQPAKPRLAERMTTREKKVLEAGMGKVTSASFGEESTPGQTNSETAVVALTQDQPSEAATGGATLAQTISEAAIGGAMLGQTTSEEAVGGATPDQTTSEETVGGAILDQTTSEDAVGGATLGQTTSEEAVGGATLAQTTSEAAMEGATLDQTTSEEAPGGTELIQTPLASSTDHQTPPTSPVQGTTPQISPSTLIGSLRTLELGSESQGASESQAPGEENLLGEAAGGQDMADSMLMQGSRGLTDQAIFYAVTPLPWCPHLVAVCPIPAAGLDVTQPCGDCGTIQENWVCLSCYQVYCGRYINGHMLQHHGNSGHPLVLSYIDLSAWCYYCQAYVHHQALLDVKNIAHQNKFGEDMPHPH

With CCCCN(Cc1ccc(C(=O)NO)cc1)C(=O)Nc1ncccn1 [JB6-22, 4-((1-butyl-3-(pyrimidin-2-yl)ureido)methyl)-N-hydroxybenzamide] the IC50 [1, 19] was 2.74 µM, the “Selectivity (HDAC1/−6)” value ([2]; Table 1B) was 281 and the IC50 [2, 20] was 0.00976 µM. For the same compound, the “acetyl-tubulin and acetylation status of Histone 3” value [3] was “increase acetyl-tubulin without modifying the acetylation status of Histone 3”, the “Cell proliferation of cancer cells” value [4] was “decrease cell proliferation” and the “IL-10 production in antigen presenting cells” value [5] was “inhibit IL-10 production”.
With Nc1ccccc1NC(=O)c1ccc(CNc2nccc(-c3cccnc3)n2)cc1 [MGCD0103] the “Inhibition of proliferation, effective concentration range (in words)” value [6] was “low micromolar range”, the “acetylation of α-tubulin” value ([3]; Western blot, FIG. 41) was “unchanged” and the Cell cycle effects [7] was “variable cell cycle effects”.
CN1CCc2c(c3ccccc3n2Cc2ccc(C(=O)NO)cc2)C1 [Tubastatin A] was tested, and the “Inhibition of proliferation, effective concentration range (in words)” value [6] was “low micromolar range”, the “acetyl-tubulin and acetylation status of Histone 3” value [3] was “increase acetyl-tubulin without modifying the acetylation status of Histone 3” and the “Expression of MHC I” value [8] was “increase of MHC1”. For the same compound, the Tumor growth [9] was “delayed tumor growth”, the “Anti-melanoma effect in vivo” value ([9]; alone or in combination with anti-CLTA4) was “anti-melanoma effect” and the JAK2/STAT3 phosphorylation [10] was “inhibits JAK2/STAT3 phosphorylation”. The “T-cell activation by treated macrophages” value ([11]; in vitro) was “better activators of naIve T-cells”, the “Expression of co-stimulatory molecules” value ([11]; macrophages) was “increased the expression of co-stimulatory molecules” and the IL-10 production ([11]; macrophages) was “inhibits IL-10 production”. For the same compound, the “Antigen-specific T-cell responses to vaccination” value [12] was “enhances antigen-specific T-cell responses”, the STAT3 phosphorylation [13] was “decreased STAT3 phosphorylation” and the Antitumor effect [14] was “strong antitumor effect”. The “Expression of melanoma antigens at the mRNA level” value [15] was “upregulation of melanoma antigens”.
CC(C)[C@@H]1C(=O)N(c2ccccc2)C(=O)N1Cc1ccc(C(=O)NO)cc1 [Compound 10b] was tested, and the IC50 [1, 21] was 11.8 µM, the “Fold Selective (HDAC1/HDAC6)” value ([2]; Table 2, cyclic urea compounds) was 531 fold and the IC50 [2, 22] was 0.0222 µM.
COc1ccccc1NC(=O)NCc1ccc(C(N)=O)cc1 [Compound 1] was tested, and the IC50 ([1]; Table 1A, mean of two experiments ± standard deviation, read-out: HDAC1 IC50) was 0.265 ± 0.059 µM and the IC50 ([2]; Table 1A, mean of two experiments ± standard deviation, read-out: HDAC6 IC50) was 0.139 ± 0.027 µM.
For O=C(NO)c1ccc(CN2C(=O)N[C@@H](Cc3ccccc3)C2=O)cc1 [Compound 11a], the IC50 [1, 21] was 7.56 µM, the “Fold Selective (HDAC1/HDAC6)” value ([2]; Table 2, cyclic urea compounds) was 295 fold and the IC50 [2, 22] was 0.0256 µM.
For Nexturastat B, the “In vivo growth of B16 WT melanoma compared with control treatment” value [16] was “not significantly different”.
COc1ccccc1NC(=O)N(CCCO)Cc1ccc(C(=O)NO)cc1 [Compound 5b, N-hydroxy-4-((1-(3-hydroxypropyl)-3-(2-methoxyphenyl)ureido)methyl)-benzamide] was tested, and the “Growth inhibition of B16 melanoma cells (in words)” value (“Growth inhibition” for short) [17] was “performed very poorly”.
In the case of CCCCN(Cc1ccc(C(=O)NO)cc1)C(=O)Nc1ccccc1 [Compound 5g, 4-((1-butyl-3-phenylureido)methyl)-N-hydroxybenzamide], the “Growth inhibition” value [17] is reported as “capable of inhibiting the growth”, the “histone H3 acetylation” value ([18]; concentrations of 1 and 10 μM) is reported as “observable increase” and the “acetyl α-tubulin levels” value ([18]; low nanomolar treatment, 24 h) is reported as “dose-dependant increase”. The “histone H3 acetylation” value ([18]; low nanomolar treatment, 24 h) was “without a concamanent elevation”, the “acetyl-tubulin and acetylation status of Histone 3” value [3] was “increase acetyl-tubulin without modifying the acetylation status of Histone 3” and the Tumor growth [9] was “delayed tumor growth”. For the same compound, the “Expression of melanoma antigens at the mRNA level” value [15] was “upregulation of melanoma antigens”.
For CCCCN(Cc1ccc(C(=O)NO)cc1)C(=O)Nc1ccc2cn[nH]c2c1 [JB7-19, 4-((1-butyl-3-(1H-indazol-6-yl)ureido)methyl)-N-hydroxybenzamide], the IC50 [1, 19] was 0.721 µM, the “Selectivity (HDAC1/−6)” value ([2]; Table 1B) was 284 and the IC50 [2, 20] was 0.00254 µM. The “acetyl-tubulin and acetylation status of Histone 3” value [3] was “increase acetyl-tubulin without modifying the acetylation status of Histone 3”, the “Cell proliferation of cancer cells” value [4] was “decrease cell proliferation” and the “IL-10 production in antigen presenting cells” value [5] was “inhibit IL-10 production”.
For O=C(NO)c1ccc(CN(CCc2ccccc2)C(=O)Nc2ccccc2)cc1 [Compound 5h, N-hydroxy-4-((1-phenethyl-3-phenylureido)methyl)benzamide], the “Growth inhibition” value [17] was “capable of inhibiting the growth”.
For COc1ccccc1N1C(=O)N(Cc2ccc(C(=O)NO)cc2)C(C)(C)C1=O [Compound 10a], the IC50 [1, 21] was 28.6 µM, the “Fold Selective (HDAC1/HDAC6)” value ([2]; Table 2, cyclic urea compounds) was 386 fold and the IC50 [2, 22] was 0.0742 µM.
CCCCN(Cc1ccc(C(=O)NO)cc1)C(=O)Nc1cccc(N(C)C)c1 [JB7-20] was tested, and the “Selectivity (HDAC1/−6)” value ([2]; Table 1B) was 99.
With COCCCN(Cc1ccc(C(=O)NO)cc1)C(=O)Nc1ccccc1 [Compound 5e, N-hydroxy-4-((1-(3-methoxypropyl)-3-phenylureido)methyl)benzamide] the “Fold Selective (HDAC1/HDAC6)” value ([2]; Table 1A) was over 400 fold.
